Test results published in the NIST ThermoML archive (doi:10.1016/j.jct.2010.11.017).
Numbers after ± are expanded uncertainties.

Experiment: wn = mass fraction of the nth substance listed
Details: 101 kPa, Liquid; for viscosity: Capillary tube (Ostwald / Ubbelohde) method; for speed of sound: Frequency=3 MHz, Linear variable-path acoustic interferometer; for mass density: Pycnometric method

O=C[C@H](O)[C@@H](O)[C@H](O)[C@H](O)CO [D-glucose] + O
Details	mass density [kg/m3]	speed of sound [m/s]	viscosity [mPa·s]
293.15 K, w1 = 0.05	1016.28 ± 6	–	1.176 ± 0.12
293.15 K, w1 = 0.1	1034.79 ± 6	1521.4 ± 10	1.357 ± 0.14
293.15 K, w1 = 0.15	1053.29 ± 6	1532.4 ± 10	1.541 ± 0.15
293.15 K, w1 = 0.2	1072.41 ± 6	1543.2 ± 10	1.877 ± 0.19
298.15 K, w1 = 0.05	1014.69 ± 6	1514.3 ± 10	0.9767 ± 0.098
298.15 K, w1 = 0.1	1033.15 ± 6	1530.6 ± 10	1.12 ± 0.11
298.15 K, w1 = 0.15	1051.61 ± 6	1542.5 ± 10	1.316 ± 0.13
298.15 K, w1 = 0.2	1070.31 ± 6	1553.3 ± 10	1.67 ± 0.17
303.15 K, w1 = 0.05	1013.08 ± 6	1525.1 ± 10	0.8605 ± 0.086
303.15 K, w1 = 0.1	1031.5 ± 6	1540.3 ± 10	0.9907 ± 0.099
303.15 K, w1 = 0.15	1049.92 ± 6	1551.5 ± 10	1.147 ± 0.12
303.15 K, w1 = 0.2	1068.17 ± 6	1563.1 ± 10	1.491 ± 0.15
308.15 K, w1 = 0.05	1011.47 ± 6	1535.7 ± 10	0.7697 ± 0.077
308.15 K, w1 = 0.1	1029.84 ± 6	1550.2 ± 10	0.8844 ± 0.089
308.15 K, w1 = 0.15	1048.37 ± 6	1560.5 ± 10	1.018 ± 0.1
308.15 K, w1 = 0.2	1065.97 ± 6	1573.5 ± 10	1.345 ± 0.13
313.15 K, w1 = 0.05	1009.85 ± 6	1545.6 ± 10	0.6945 ± 0.07
313.15 K, w1 = 0.1	1028.17 ± 6	1559.9 ± 10	0.7901 ± 0.079
313.15 K, w1 = 0.15	1046.62 ± 6	1569.6 ± 10	0.8925 ± 0.089
313.15 K, w1 = 0.2	1063.76 ± 6	1582.2 ± 10	1.21 ± 0.12
318.15 K, w1 = 0.05	–	1554.5 ± 10	0.6334 ± 0.064
318.15 K, w1 = 0.1	1026.48 ± 6	1568.4 ± 10	0.7223 ± 0.072
318.15 K, w1 = 0.15	1044.93 ± 6	1577.2 ± 10	0.8097 ± 0.081
318.15 K, w1 = 0.2	1061.52 ± 6	1591.2 ± 10	1.112 ± 0.11
